Patent US20240132519A1, “NRF2-ACTIVATING COMPOUND” (SENJU PHARMACEUTICAL CO., LTD., priority 2020, published 2024)
Marks after values point to notes of the source that are not given here.

Experiments:
[1] = biological target: binding between NRF2 and KEAP1 (Homo sapiens (Human), UniProt Q14145); assay: Binding assay: inhibition of binding between NRF2 and KEAP1 by BRET (NanoLuc-NRF2 and KEAP1-HaloTag cell lysates); details: N=2
Procedure: The inhibitory activity of each compound on the binding between NRF2 and KEAP1 was measured by bioluminescence resonance energy transfer (BRET) assay. A plasmid having human NRF2 (Original Clone ID: ha01449s1) sequence fused with NanoLuc (19 kDa, Promega) at the N-terminal was transduced into HCE-T cells (immortalized human corneal epithelial cells) using FuGENE HD (Promega). 48 hours after transduction, the cell lysate was collected and used as an NRF2-expressing cell lysate. A plasmid having human KEAP1 (Original Clone ID: cs00328) sequence fused with HaloTag (33 kDa, Promega) at the C-terminal was transduced into HCE-T cells using FuGENE HD (Promega). After 24 hours, HaloTag Nano BRET 618 Ligand (Promega) was added to the medium. The cell lysate cultured for 24 hours after the addition was used as a KEAP1-expressing cell lysate.
The NRF2-expressing cell lysate and the KEAP1-expressing cell lysate were adjusted so that the luminescence and fluorescence intensities per well were constant. Tables 1 and 2 show the formulation of each reaction solution.
Each test substance at a concentration 100 times higher than the test concentration was dissolved in dimethylsulfoxide for adjustment. 49 μL of KEAP1 solution was added to a 96-well polystyrene microplate (FALCON) to which 1 μL of each test substance solution was added, followed by incubation for 15 minutes. Then, 50 μL of NRF2 solution was added to the above solution, followed by incubation for 1 hour. To measure the binding between NRF2 and KEAP1, NanoBRET Nano-Glo Substrate (Promega) diluted with Opti-Mem (Thermo Fisher Scientific) was added, followed by shaking for 30 seconds. Then, luminescence and fluorescence were measured using the GloMax Discover System (Promega). A 495-nm short pass filter and a 600-nm long pass filter were respectively used to measure donor and acceptor emission values. A value obtained by dividing the acceptor emission value by the donor emission value was regarded as BRET value. A BRET value when the compound was not added, and a BRET value when the KEAP1 solution was not added were respectively used as binding rates of 100% and 0%, and the binding rate when the compound was added was calculated. Further, using this binding rate, the 50% binding inhibitory activity concentration (IC50) was calculated from the following formula. The test was performed at N=2.
IC50(M)=10^(LOG(A/B)×(50−C)/(D−C)+LOG(B)) • A: higher concentration out of 2 close concentrations across the inhibition rate of 50% • B: lower concentration out of 2 close concentrations across the inhibition rate of 50% • C: inhibition rate at B • D: inhibition rate at A
(§1) Compounds A1/A2, compounds B1/B2, compounds C1/C2, and compounds D1/D2 were used as test substances. Binding assay and reporter assay were performed as in Test Example 1-1 and Test Example 1-2.

[2] = tested on: NRF2; assay: Reporter assay: NRF2 activating action in HCE-T/ARE-Luc cells (ARE luciferase reporter gene assay); format: cell-based, human; details: N=3
Procedure: The NRF2 activating action of the compounds on cells was measured by a reporter gene assay. pGL4.37[luc2P/ARE/Hygro] (Promega) was introduced into HCE-T cells using FuGENE HD. Cells that acquired drug resistance as a result of transduction were screened by culture in the presence of 50 μg/mL hygromycin, and a clone strain, HCE-T/ARE-Luc cells, was established.
HCE-T/ARE-Luc cells were cultured using DMEM/F12 medium containing 10 ng/mL hEGF, 5 μg/mL insulin, 5% FBS, and 40 μg/mL gentamicin. As the assay medium, a medium with the same composition as that for the culture was prepared using phenol red-free DMEM/F12 medium.
HCE-T/ARE-Luc cells were seeded in a 96-well polystyrene microplate (FALCON) with 10000 cells per well. The cells were incubated in a CO2 incubator at 37° C. for 16 hours to allow for cell adhesion. The test substance was dissolved in dimethylsulfoxide to prepare a solution at a concentration 1000 times higher than the test concentration. The cells were treated with the test substance diluted 1000-fold with the assay medium and cultured for 24 hours. When measuring the activity of the reporter, the medium containing the test substance was removed, and then a new medium and a substrate of ONE-GloEX Luciferase Assay System (Promega) were added. The plate was shaken for 1 minute and then allowed to stand at ordinary temperature for 10 minutes, and luminescence was detected using the GloMax Discover System (Promega).
The test was performed at N=3, and the 50% activation concentration of each test substance was calculated by creating a calibration curve between two concentrations across the luminescence incensity of 50%.
as §1

[3] = tested on: HCE-T cells; assay: Cell viability test in HCE-T cells (Cell Counting Kit-8, 24 hours); format: cell-based, human; details: mean, N=3
Procedure: To confirm cell viability, HCE-T cells were seeded at 10000 cells per well in a 96-well polystyrene microplate (IWAKI). The cells were cultured in a CO2 incubator at 37° C. for 16 hours to allow the cells to adhere. The culture of the HCE-T cells was performed using DMEM/F12 medium containing 10 ng/mL hEGF, 5 μg/mL insulin, 5% FBS, and 40 μg/mL gentamicin.
Each test substance was dissolved in dimethyl sulfoxide to prepare a stock solution with a concentration that is 1000 times the test concentration. DMEM/F12 medium containing 40 μg/mL gentamicin was used as assay medium. The medium containing serum and growth factors was removed and replaced with assay medium in which each test substance was appropriately serially diluted, and the cell viability was measured after 24 hours. Cell Counting Kit-8 (Dojindo Laboratories) was added to each well in an amount that is 1/10 the amount of the medium. Color reaction was performed for 1 hour in a CO2 incubator, and absorbance at 450 nm was measured with a microplate reader (Corona Electric Co., Ltd.). […] The test was performed at N=3.

[4] = Test Example 3, separated diastereomers, mean
[5] = Test Example 1-1, NRF2-KEAP1 BRET

Sequence of binding between NRF2 and KEAP1 (Q14145 whole entry, the tested form may be a part): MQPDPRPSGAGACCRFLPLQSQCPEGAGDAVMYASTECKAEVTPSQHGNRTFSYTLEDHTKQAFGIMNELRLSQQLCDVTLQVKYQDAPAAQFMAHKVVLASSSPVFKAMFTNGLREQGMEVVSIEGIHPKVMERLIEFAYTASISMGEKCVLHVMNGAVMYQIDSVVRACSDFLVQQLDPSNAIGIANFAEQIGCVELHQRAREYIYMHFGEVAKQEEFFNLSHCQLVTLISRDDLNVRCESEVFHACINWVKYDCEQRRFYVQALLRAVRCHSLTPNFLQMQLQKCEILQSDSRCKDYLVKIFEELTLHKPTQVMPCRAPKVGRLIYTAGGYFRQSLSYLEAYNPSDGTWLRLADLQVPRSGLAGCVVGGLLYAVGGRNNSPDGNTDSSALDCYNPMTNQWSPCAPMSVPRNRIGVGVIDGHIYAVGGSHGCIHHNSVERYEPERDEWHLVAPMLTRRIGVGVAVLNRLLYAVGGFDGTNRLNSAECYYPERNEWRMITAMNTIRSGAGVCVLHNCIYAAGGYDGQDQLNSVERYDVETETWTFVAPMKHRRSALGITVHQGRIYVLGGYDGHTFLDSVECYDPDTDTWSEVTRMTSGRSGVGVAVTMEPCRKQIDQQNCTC

Compound | IC50 [1, 4] | EC50 [2, 4] | Cytotoxic concentration (concentration that does not affect cell viability) [3] | IC50 [1, 5] | EC50 ([2]; Homo sapiens, Test Example 1-2, HCE-T/ARE-Luc cells, 24 hours)
CC[C@@H]1CN(Cc2cc(C(c3ccc(C(C)=O)s3)[C@H](C)C(=O)O)ccc2C)S(=O)(=O)c2ccccc2O1 (stereo partly drawn) [Compound A2] | 0.71 nM | 317 nM | 65.3** uM | – | –
CC[C@@H]1CN(Cc2cc(C(c3ccc(C(C)=O)s3)C(C)(C)C(=O)O)ccc2C)S(=O)(=O)c2cnccc2O1 (single isomer, unassigned) [Compound D2] | 5.17 nM | 513 nM | 14.7* uM | – | –
CC[C@@H]1CN(Cc2cc([C@@H](c3cc(OC)c(C(C)=O)s3)[C@@H](C)C(=O)O)ccc2C)S(=O)(=O)c2cnccc2O1 [Compound C1, (2R,3S)-3-(5-acetyl-4-methoxythiophen-2-yl)-3-(3-{[(R)-4-ethyl-1,1-dioxide-3,4-dihydro-2H-pyrido[4,3-b][1,4,5]oxathiazepin-2-yl]methyl}-4-methylphenyl)-2-methylpropanoic acid] | 0.15 nM | 3.12 nM | 53.5 µM | – | –
CC[C@@H]1CN(Cc2cc(C(c3cc(C)c(C(C)=O)s3)C(C)C(=O)O)ccc2C)S(=O)(=O)c2ccccc2O1 (stereo partly drawn) [Compound 2, 3-(5-acetyl-4-methylthiophen-2-yl)-3-(3-{[(R)-4-ethyl-1,1-dioxide-3,4-dihydro-2H-benzo[b][1,4,5]oxathiazepin-2-yl]methyl}-4-methylphenyl)-2-methylpropanoic acid] | – | – | – | 0.25 nM | 9 nM
CC[C@@H]1CN(Cc2cc(C(c3ccc(C(C)=O)s3)C(C)(C)C(=O)O)ccc2C)S(=O)(=O)c2cnccc2O1 (single isomer, unassigned) [Compound D1] | 0.17 nM | 0.67 nM | 34.1 µM | – | –
CC[C@@H]1CN(Cc2cc([C@@H](c3ccc(C(C)=O)s3)[C@@H](C)C(=O)O)ccc2C)S(=O)(=O)c2ccccc2O1 [Compound A1, (2R,3S)-3-(5-acetylthiophen-2-yl)-3-(3-{[(R)-4-ethyl-1,1-dioxide-3,4-dihydro-2H-benzo[b][1,4,5]oxathiazepin-2-yl]methyl}-4-methylphenyl)-2-methylpropanoic acid] | 0.14 nM | 5.82 nM | 111.4 µM | – | –
CC[C@@H]1CN(Cc2cc(C(c3cc(OC)c(C(C)=O)s3)[C@H](C)C(=O)O)ccc2C)S(=O)(=O)c2cnccc2O1 (stereo partly drawn) [Compound C2] | 0.89 nM | 777 nM | 30.7* uM | – | –
CC[C@@H]1CN(Cc2cc([C@@H](c3ccc(C(C)=O)s3)[C@@H](C)C(=O)O)ccc2C)S(=O)(=O)c2cnccc2O1 [Compound B1, (2R,3S)-3-(5-acetylthiophen-2-yl)-3-(3-{[(R)-4-ethyl-1,1-dioxide-3,4-dihydro-2H-pyrido[4,3-b][1,4,5]oxathiazepin-2-yl]methyl}-4-methylphenyl)-2-methylpropanoic acid] | 0.17 nM | 0.98 nM | 345.4 µM | – | –
CC[C@@H]1CN(Cc2cc(C(CC(=O)O)c3cc(F)c(C(C)=O)s3)ccc2C)S(=O)(=O)c2ccccc2O1 (stereo partly drawn) [Compound 8, 3-(5-acetyl-4-fluorothiophen-2-yl)-3-(3-{[(R)-4-ethyl-1,1-dioxide-3,4-dihydro-2H-benzo[b][1,4,5]oxathiazepin-2-yl]methyl}-4-methylphenyl)propanoic acid] | – | – | – | 0.36 nM | –
CC[C@@H]1CN(Cc2cc(C(CC(=O)O)c3ccc(C(=O)NC)s3)ccc2C)S(=O)(=O)c2ccccc2O1 (stereo partly drawn) [Compound 21, 3-(3-{[(R)-4-ethyl-1,1-dioxide-3,4-dihydro-2H-benzo[b][1,4,5]oxathiazepin-2-yl]methyl}-4-methylphenyl)-3-[5-(methylcarbamoyl)thiophen-2-yl]propanoic acid] | – | – | – | 4.6 nM | –
CC(=O)c1ccc(C(c2ccc(C)c(CN3CC(CCOCc4ccccc4)Oc4ccccc4S3(=O)=O)c2)C(C)C(=O)O)s1 (stereo not drawn) [Compound 13, 3-(5-acetylthiophen-2-yl)-3-[3-({4-[2-(benzyloxy)ethyl]-1,1-dioxide-3,4-dihydro-2H-benzo[b][1,4,5]oxathiazepin-2-yl}methyl)-4-methylphenyl]-2-methylpropanoic acid] | – | – | – | 0.5 nM | –
CC[C@@H]1CN(Cc2cc(C(c3ccc(C(C)=O)s3)C(C)C(=O)O)ccc2C)S(=O)(=O)c2cnccc2O1 (stereo partly drawn) [Compound 16, 3-(5-acetylthiophen-2-yl)-3-(3-{[(R)-4-ethyl-1,1-dioxide-3,4-dihydro-2H-pyrido[4,3-b][1,4,5]oxathiazepin-2-yl]methyl}-4-methylphenyl)-2-methylpropanoic acid] | – | – | – | 0.2 nM | –
CC[C@@H]1CN(Cc2cc(C(CC(=O)O)c3ccc(C(C)=O)s3)ccc2C)S(=O)(=O)c2cnccc2O1 (stereo partly drawn) [Compound 53, 3-(5-acetylthiophen-2-yl)-3-(3-{[(R)-4-ethyl-1,1-dioxide-3,4-dihydro-2H-pyrido[4,3-b][1,4,5]oxathiazepin-2-yl]methyl}-4-methylphenyl)propanoic acid] | – | – | – | 2.3 nM | –
3-(3-{[(R)-4-ethyl-1,1-dioxide-3,4-dihydro-2H-benzo[b][1,4,5]oxathiazepin-2-yl]methyl}-4-methylphenyl)-3-(5-sulfamoylthiophen-2-yl)propanoic acid [Compound 18] | – | – | – | 35 nM | –
CC[C@@H]1CN(Cc2cc(C(CC(=O)O)c3ccc(C#N)s3)ccc2C)S(=O)(=O)c2ccccc2O1 (stereo partly drawn) [Compound 19, 3-(5-cyanothiophen-2-yl)-3-(3-{[(R)-4-ethyl-1,1-dioxide-3,4-dihydro-2H-benzo[b][1,4,5]oxathiazepin-2-yl]methyl}-4-methylphenyl)propanoic acid] | – | – | – | 3.1 nM | –
CC[C@@H]1CN(Cc2cc(C(c3ccc(C(C)=O)s3)[C@H](C)C(=O)O)ccc2C)S(=O)(=O)c2cnccc2O1 (stereo partly drawn) [Compound B2] | 1.01 nM | 90.1 nM | 181.1* uM | – | –
